# Test results reported in US20220389010A1, “Novel Triazolopyridine Derivatives and Pharmaceutical Composition Comprising Same” (Daewoong Pharmaceutical Co., Ltd., priority 2019, published 2022).
# Molecular target: T1, Recombinant purified human JAK3 (Homo sapiens, UniProt P52333)
# T1 construct: purchased Promega V9441
# T1 sequence (P52333 1-1124): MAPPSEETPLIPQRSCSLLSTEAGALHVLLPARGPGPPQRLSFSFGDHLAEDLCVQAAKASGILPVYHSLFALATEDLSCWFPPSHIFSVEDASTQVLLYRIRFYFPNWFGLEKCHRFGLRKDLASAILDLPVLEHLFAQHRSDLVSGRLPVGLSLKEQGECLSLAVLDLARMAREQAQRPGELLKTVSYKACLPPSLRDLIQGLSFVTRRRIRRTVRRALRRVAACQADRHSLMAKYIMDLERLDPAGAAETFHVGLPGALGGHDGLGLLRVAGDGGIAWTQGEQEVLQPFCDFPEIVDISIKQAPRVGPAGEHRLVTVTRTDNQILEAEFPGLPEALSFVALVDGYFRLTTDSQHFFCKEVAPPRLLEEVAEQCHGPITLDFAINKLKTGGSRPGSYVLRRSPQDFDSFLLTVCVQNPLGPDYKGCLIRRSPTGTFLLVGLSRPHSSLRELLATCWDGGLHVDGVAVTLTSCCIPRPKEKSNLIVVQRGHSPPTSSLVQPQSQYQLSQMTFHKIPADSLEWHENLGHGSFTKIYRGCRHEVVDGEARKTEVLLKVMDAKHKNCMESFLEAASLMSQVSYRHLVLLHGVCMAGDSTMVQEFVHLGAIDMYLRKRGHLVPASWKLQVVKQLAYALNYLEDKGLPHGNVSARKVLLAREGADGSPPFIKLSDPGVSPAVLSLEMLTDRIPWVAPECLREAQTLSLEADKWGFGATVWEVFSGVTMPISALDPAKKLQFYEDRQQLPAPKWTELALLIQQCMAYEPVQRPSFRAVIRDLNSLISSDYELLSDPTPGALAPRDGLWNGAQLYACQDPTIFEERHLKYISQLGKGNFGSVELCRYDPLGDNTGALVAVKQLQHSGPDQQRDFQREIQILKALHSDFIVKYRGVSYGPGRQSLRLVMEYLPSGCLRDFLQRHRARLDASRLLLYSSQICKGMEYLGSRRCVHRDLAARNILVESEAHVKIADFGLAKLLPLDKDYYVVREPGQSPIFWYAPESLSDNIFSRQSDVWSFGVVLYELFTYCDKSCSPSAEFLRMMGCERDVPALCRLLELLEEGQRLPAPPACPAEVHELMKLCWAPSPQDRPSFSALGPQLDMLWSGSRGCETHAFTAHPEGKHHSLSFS
# Assay: JAK3 inhibitory activity test (ADP-Glo kinase assay)
# Format: biochemical
# Settings: ATP 5 uM, 1 hour incubation at 30° C.
# Description: The inhibitory activities against JAK3 were measured for the compounds prepared in the above Examples through in vitro analysis on the ADP Glow (Glo) platform.
# Specifically, the inhibitory activities against JAK3 were measured using a JAK3 kinase assay kit (Promega, V9441), which was purchased from Promega. Recombinant purified human JAK3 was diluted with 1× kinase reaction buffer (JAK3: 40 mM Tris-CI, pH 7.5, 20 mM MgCl2, 0.1 mg/mL BSA and 50 uM OTT and added to a 96 well plate (JAK3: final concentration of 4 ng per reaction). The compounds prepared in the previous Examples were treated so as to be finally a 1% DMSO aqueous solution, and a substrate cocktail containing ATP (JAK3: final concentration of 5 uM) and 0.2 ug/ul of Poly(Glu4, Tyri) peptide (JAK3 final concentration) in the total 25 uL reactants was added to a 96-well plate to initiate enzymatic reaction. After incubation (30° C.) for 1 hour, equivalent volume (25 uL per reaction) of ADP Glo was added and incubated (30° C.) for 40 minutes at room temperature. Then, a kinase detection reagent (50 uL per reaction) was added and incubated (30° C.) for 30 minutes at room temperature. The kinase activity was measured by chemiluminescence according to the instructions of ADP Glo kinase assay kit, and the inhibitory activity of the compounds according to the present invention was calculated. For the analysis of the results of each compound, Microsoft Excel was used, and IC50 values were calculated by SigmaPlot software.
row,IC50 [nM],SMILES
1,1.2,"C=CC(=O)Nc1ccc(F)c(Oc2cccc3nc(Nc4ccc5ncsc5c4)nn23)c1 [Example 28, N-(3-(2-(benzo[d]thiazol-6-ylamino)-[1,2,4]triazolo[1,5-a]pyridin-5-yloxy)-4-fluorophenyl)acrylamide]"
2,0.7,"C=CC(=O)Nc1ccc(F)c(Oc2cccc3nc(Nc4ccc(N5CCN(C)CC5)cc4)nn23)c1 [Example 29, N-(4-fluoro-3-(2-(4-(4-methylpiperazin-1-yl)phenylamino)-[1,2,4]triazolo[1,5-a]pyridin-5-yloxy)phenyl)acrylamide]"
3,13.1,"C=CC(=O)Nc1ccc(F)c(Oc2cccc3nc(Nc4cnn(C)c4)nn23)c1 [Example 30, N-(4-fluoro-3-(2-(1-methyl-1H-pyrazol-4-ylamino)-[1,2,4]triazolo[1,5-a]pyridin-5-yloxy)phenyl)acrylamide]"
4,18.2,"C=CC(=O)Nc1ccc(F)c(Oc2cccc3nc(Nc4cnn(C(F)F)c4)nn23)c1 [Example 31, N-(3-(2-(1-(difluoromethyl)-1H-pyrazol-4-ylamino)-[1,2,4]triazolo[1,5-a]pyridin-5-yloxy)-4-fluorophenyl)acrylamide]"
